Assay type in all cases: functional
In test [1] the test system is SF-268. As to the kind of experiment: In vitro anti-cancer activity against SF 268(CNS) human tumor cell lines.
The subject of test [2] is UACC-62. As to the kind of experiment: In vitro anti-cancer activity against UACC 62(Melanoma) human tumor cell line.
The subject of test [3] is ACHN. Briefly: In vitro anti-cancer activity against ACHN(Renal) human tumor cell line.
Test [4] deals with HOP-62. Briefly: In vitro anti-cancer activity against HOP 62(Lung) human tumor cell line.
Test [5] deals with DU-145. As to the kind of experiment: In vitro anti-cancer activity against DU-145 (Prostate) human tumor cell line.
For test [6], the system named is OVCAR-8. Briefly: In vitro anti-cancer activity against OVCAR 8(Ovarian) human tumor cell lines.
The test system of test [7] is NCI/ADR-RES. As to the kind of experiment: In vitro anti-cancer activity against MCF-7/ADR (Breast) human tumor cell lines.
In test [8] the test system is OVCAR-8. As to the kind of experiment: In vitro anti-cancer activity against OVCAR 8(Ovarian) human tumor cell line.
Test [9] concerns NCI/ADR-RES. As to the kind of experiment: In vitro anti-cancer activity against MCF-7/ADR (Breast) human tumor cell line.
The subject of test [10] is SF-268. As to the kind of experiment: In vitro anti-cancer activity against SF 268(CNS) human tumor cell line.

The values that follow come from ChEMBL document CHEMBL1131745, “Novel C-ring analogues of 20(S)-camptothecin-part-2: synthesis and in vitro cytotoxicity of 5-C-substituted 20(S)-camptothecin analogues” (1999).

Each structure is given as a SMILES string.

Turning to `CC[C@@]1(O)C(=O)OCc2c1cc1n(c2=O)C(CC(=O)OC)c2cc3cc([N+](=O)[O-])ccc3nc2-1` (stereo not given in full), the GI50 – broadly, the concentration at which growth is held to half of that of the control – stood at 26200 nM in test [1]; 4040 nM in [2]; 4610 nM in [3]; 5250 nM in test [4]; 8510 nM in test [5]; 12600 nM in test [6].

As for `CC[C@@]1(O)C(=O)OCc2c1cc1n(c2=O)C(CC(=O)OC)c2cc3ccccc3nc2-1` (stereo not given in full), the GI50 came out at 18600 nM in test [1]; 6440 nM in [2]; 7200 nM in test [7]; 5290 nM in test [3]; 15500 nM in test [5]; 16300 nM in test [6].

Turning to `CC[C@@]1(O)C(=O)OCc2c1cc1n(c2=O)C(CC(=O)OCCF)c2cc3ccccc3nc2-1` (stereo not given in full), the GI50 in [1] was 50 nM; in [2] it was 200 nM; in test [7], 6000 nM; in test [3] it was 80 nM; in test [4] it was over 30000 nM; in [5], 100 nM. In addition, the GI50 in test [6] worked out at 40 nM.

As to `CC[C@@]1(O)C(=O)OCc2c1cc1n(c2=O)C(CC(N)=O)c2cc3ccccc3nc2-1` (stereo not given in full), the GI50 in [1] is 29000 nM; in test [2], 16000 nM; in [3] it was 16000 nM; in test [4], over 30000 nM; in test [5], 12000 nM; in test [6], 20000 nM.

For `CC[C@@]1(O)C(=O)OCc2c1cc1n(c2=O)C(CC(=O)OCC(F)(F)F)c2cc3ccccc3nc2-1` (stereo not given in full), the GI50 in test [1] was determined as 140 nM; in test [2] it was 300 nM; in [7] it was 500 nM; in test [3] it was 170 nM; in test [4], 130 nM; in test [5], 280 nM. In test [6], this compound yielded a GI50 of 1120 nM.

On to `CC[C@@]1(O)C(=O)OCc2c1cc1n(c2=O)C(CC(=O)N2CCCC2)c2cc3ccccc3nc2-1` (stereo not given in full), for which the GI50 was 410 nM in [2]; 790 nM in test [7]; 210 nM in [3]; 290 nM in [4]; 450 nM in test [5]; 760 nM in test [6].

With `CC[C@@]1(O)C(=O)OCc2c1cc1n(c2=O)C(CC(C)=O)c2cc3c(O)cccc3nc2-1` (stereo not given in full), the GI50 stood at 4000 nM in test [1]; 7500 nM in [2]; 5000 nM in test [7]; 1000 nM in test [3]; 4000 nM in [4]; 2000 nM in test [5]. The GI50 in test [6] is 3500 nM.

`CC[C@@]1(O)C(=O)OCc2c1cc1n(c2=O)C(CC(=O)OC)c2cc3c(O)cccc3nc2-1` (stereo not given in full): the concentration for 50% growth inhibition (GI50) in [1] is 2320 nM; in test [2], 1720 nM; in test [3], 440 nM; in [4], 2090 nM; in [5] it was 600 nM; in [6], 1720 nM.

For the compound `CC[C@@]1(O)C(=O)OCc2c1cc1n(c2=O)C(CC(=O)N2CCCCC2)c2cc3ccccc3nc2-1` (stereo not given in full), the GI50 was 650 nM in [1]; 330 nM in test [2]; 3030 nM in test [7]; 340 nM in [3]; 530 nM in [4]; 320 nM in test [5]. Besides, the GI50 in [6] is 3570 nM.

On to `CC[C@@]1(O)C(=O)OCc2c1cc1n(c2=O)C(CC(=O)OCCO)c2cc3ccccc3nc2-1` (stereo not given in full), for which the GI50 in [1] is 1000 nM; in test [2], 200 nM; in test [7], 6000 nM; in [3], 10000 nM; in test [4] it was over 30000 nM; in test [5], 1000 nM. The compound further showed a GI50 in test [6] of 250 nM.

Regarding `CC[C@@]1(O)C(=O)OCc2c1cc1n(c2=O)C(CC(C)=O)c2cc3cc([N+](=O)[O-])ccc3nc2-1` (stereo not given in full), the GI50 in [1] turned out to be 140 nM; in test [2], 300 nM; in test [7], 500 nM; in [3], 170 nM; in [4], 130 nM; in test [5], 280 nM. The same compound had a GI50 in test [6] of 1120 nM.

For the compound `CC[C@@]1(O)C(=O)OCc2c1cc1n(c2=O)C(CC(C)=O)c2cc3ccccc3nc2-1` (stereo not given in full), the GI50 is 7150 nM in [1]; 3540 nM in [2]; 3880 nM in test [7]; 3030 nM in test [3]; 3920 nM in [5]; 7390 nM in [6].

With `CC[C@@]1(O)C(=O)OCc2c1cc1n(c2=O)Cc2cc3c(CN(C)C)c(O)ccc3nc2-1` [TOPOTECAN], the GI50 was 30 nM in test [2]; 200 nM in [8]; 70 nM in test [9]; 40 nM in test [3]; 50 nM in test [4]; 40 nM in test [5]. In [10], this compound gave a GI50 of 80 nM.
